Legend:
Experiment in all cases: Test D controlled growth environment herbicide test, pre- and postemergence
Assay type in all cases: in vivo
[1] = tested on: bluegrass (annual bluegrass, Poa annua)
Text: (§1) Seeds of plant species selected from bluegrass (annual bluegrass, Poa annua), blackgrass (Alopecurus myosuroides), Canada thistle (Cirsium arvense), canarygrass (Phalaris minor), chickweed (common chickweed, Stellaria media), geranium, cutleaf (cutleaf geranium, Geranium dissectum), galium (catchweed bedstraw, Galium aparine), bromegrass, downy (downy bromegrass, Bromus tectorum), field poppy (Papaver rhoeas), field violet (Viola arvensis), foxtail, green (green foxtail, Setaria viridis), deadnettle (henbit deadnettle, Lamium amplexicaule), ryegrass, Italian (Italian ryegrass, Lolium multiflorum), kochia (Kochia scoparia), lambsquarters (Chenopodium album), oilseed rape (Brassica napus), pigweed (Amaranthus retroflexus), chamomile (scentless chamomile, Matricaria inodora), Russian thistle (Salsola kali), speedwell (bird's-eye speedwell, Veronica persica), barley, spring (spring barley, Hordeum vulgare), wheat, spring (spring wheat, Triticum aestivum), buckwheat, wild (wild buckwheat, Polygonum convolvulus), mustard, wild (wild mustard, Sinapis arvensis), oat, wild (wild oat, Avena fatua), radish, wild (wild radish, Raphanus raphanistrum), windgrass (Apera spica-venti), barley, winter (winter barley, Hordeum vulgare), and wheat, winter (winter wheat, Triticum aestivum) were planted into a silt loam soil and treated preemergence with test chemicals formulated in a non-phytotoxic solvent mixture which included a surfactant.
(§2) At the same time, these species were planted in pots containing Redi-Earth® planting medium (Scotts Company, 14111 Scottslawn Road, Marysville, Ohio 43041) comprising spaghnum peat moss, vermiculite, wetting agent and starter nutrients and treated with postemergence applications of the test chemicals formulated in the same manner. Plants ranged in height from 2 to 18 cm (1- to 4-leaf stage). Treated plants and controls were maintained in a controlled growth environment for 14 to 21 d after which time all species were compared to controls and visually evaluated. Plant response ratings, summarized in Table D, are based on a scale of 0 to 100 where 0 is no effect and 100 is complete control. A dash (-) response means no test result.

[2] = tested on: chickweed (common chickweed, Stellaria media)
Text: as §1, §2

[3] = tested on: mustard, wild (wild mustard, Sinapis arvensis)
Text: as §1, §2

[4] = tested on: field poppy (Papaver rhoeas)
Text: as §1, §2

[5] = tested on: wheat, winter (winter wheat, Triticum aestivum)
Text: as §1, §2

[6] = tested on: barley, spring (spring barley, Hordeum vulgare)
Text: as §1, §2

[7] = tested on: barley, winter (winter barley, Hordeum vulgare)
Text: as §1, §2

[8] = tested on: foxtail, green (green foxtail, Setaria viridis)
Text: as §1, §2

[9] = tested on: ryegrass, Italian (Italian ryegrass, Lolium multiflorum)
Text: as §1, §2

[10] = tested on: radish, wild (wild radish, Raphanus raphanistrum)
Text: as §1, §2

[11] = tested on: canarygrass (Phalaris minor)
Text: as §1, §2

[12] = tested on: deadnettle (henbit deadnettle, Lamium amplexicaule)
Text: as §1, §2

[13] = tested on: windgrass (Apera spica-venti)
Text: as §1, §2

[14] = Postemergence, 31 g ai/ha, scale 0 to 100 (0 no effect, 100 complete control)
[15] = Postemergence, 125 g ai/ha, visual rating on scale 0 (no effect) to 100 (complete control), 14 to 21 d
[16] = Postemergence, 250 g ai/ha, scale 0 to 100 (0 no effect, 100 complete control)
[17] = Preemergence, 62 g ai/ha, scale 0 to 100 (0 no effect, 100 complete control)
[18] = Preemergence, 125 g ai/ha, scale 0 to 100 (0 no effect, 100 complete control)
[19] = Preemergence, 250 g ai/ha, scale 0 to 100 (0 no effect, 100 complete control)
[20] = postemergence, 62 g ai/ha, scale 0 to 100, 0 no effect, 100 complete control

SMILES: CCOC(=O)Oc1c(C)nn(C)c(=O)c1-c1c(C)sc2ccc(C)cc12 [Compound 82]
- Bluegrass plant response rating [1, 14]: 10
- Plant response rating, Bluegrass [1, 15]: 30
- Plant response rating, Bluegrass [1, 16]: 35
- Plant response rating (scale of 0 to 100), Bluegrass ([1]; Preemergence, 31 g ai/ha): 15
- Plant response rating, Bluegrass [1, 17]: 45
- Plant response rating, Bluegrass [1, 18]: 65
- Plant response rating, Bluegrass [1, 19]: 80
- Plant response rating, Bluegrass [1, 20]: 20
- Chickweed plant response rating [2, 14]: 80
- Plant response rating, Chickweed [2, 15]: 95
- Plant response rating, Chickweed [2, 16]: 100
- Plant response rating (scale of 0 to 100), Chickweed ([2]; Preemergence, 31 g ai/ha): 100
- Plant response rating (scale of 0 to 100), Chickweed ([2]; Preemergence, 62 g ai/ha): 100
- Plant response rating, Chickweed [2, 18]: 100
- Plant response rating, Chickweed [2, 19]: 100
- Plant response rating, Chickweed [2, 20]: 90
- Mustard, Wild plant response rating [3, 14]: 25
- Plant response rating, Mustard, Wild [3, 15]: 40
- Plant response rating, Mustard, Wild [3, 16]: 70
- Plant response rating (scale of 0 to 100), Mustard, Wild ([3]; Preemergence, 31 g ai/ha): 0
- Plant response rating (scale of 0 to 100), Mustard, Wild ([3]; Preemergence, 62 g ai/ha): 0
- Plant response rating, Mustard, Wild [3, 18]: 25
- Plant response rating, Mustard, Wild [3, 19]: 15
- Plant response rating, Mustard, Wild [3, 20]: 35
- Field Poppy plant response rating [4, 14]: 70
- Plant response rating, Field Poppy [4, 15]: 95
- Plant response rating, Field Poppy [4, 16]: 100
- Plant response rating (scale of 0 to 100), Field Poppy ([4]; Preemergence, 31 g ai/ha): 95
- Plant response rating (scale of 0 to 100), Field Poppy ([4]; Preemergence, 62 g ai/ha): 100
- Plant response rating, Field Poppy [4, 18]: 100
- Plant response rating, Field Poppy [4, 19]: 100
- Plant response rating, Field Poppy [4, 20]: 85
- Wheat, Winter plant response rating [5, 14]: 0
- Plant response rating, Wheat, Winter [5, 15]: 0
- Plant response rating, Wheat, Winter [5, 16]: 0
- Plant response rating (scale of 0 to 100), Wheat, Winter ([5]; Preemergence, 31 g ai/ha): 0
- Plant response rating (scale of 0 to 100), Wheat, Winter ([5]; Preemergence, 62 g ai/ha): 0
- Plant response rating, Wheat, Winter [5, 18]: 0
- Plant response rating, Wheat, Winter [5, 19]: 10
- Plant response rating, Wheat, Winter [5, 20]: 0
- Barley, Spring plant response rating [6, 14]: 0
- Plant response rating, Barley, Spring [6, 15]: 0
- Plant response rating, Barley, Spring [6, 16]: 5
- Plant response rating (scale of 0 to 100), Barley, Spring ([6]; Preemergence, 31 g ai/ha): 0
- Plant response rating, Barley, Spring [6, 17]: 0
- Plant response rating, Barley, Spring [6, 18]: 0
- Plant response rating, Barley, Spring [6, 19]: 10
- Plant response rating, Barley, Spring [6, 20]: 5
- Barley, Winter plant response rating [7, 14]: 0
- Plant response rating, Barley, Winter [7, 15]: 0
- Plant response rating, Barley, Winter [7, 16]: 0
- Plant response rating (scale of 0 to 100), Barley, Winter ([7]; Preemergence, 31 g ai/ha): 0
- Plant response rating, Barley, Winter [7, 17]: 0
- Plant response rating, Barley, Winter [7, 18]: 5
- Plant response rating, Barley, Winter [7, 19]: 25
- Plant response rating, Barley, Winter [7, 20]: 0
- Foxtail, Green plant response rating [8, 14]: 75
- Plant response rating, Foxtail, Green [8, 15]: 85
- Plant response rating, Foxtail, Green [8, 16]: 90
- Plant response rating (scale of 0 to 100), Foxtail, Green ([8]; Preemergence, 31 g ai/ha): 35
- Plant response rating (scale of 0 to 100), Foxtail, Green ([8]; Preemergence, 62 g ai/ha): 75
- Plant response rating, Foxtail, Green [8, 18]: 90
- Plant response rating, Foxtail, Green [8, 19]: 85
- Plant response rating, Foxtail, Green [8, 20]: 80
- Ryegrass, Italian plant response rating [9, 14]: 85
- Plant response rating, Ryegrass, Italian [9, 15]: 90
- Plant response rating, Ryegrass, Italian [9, 16]: 90
- Plant response rating (scale of 0 to 100), Ryegrass, Italian ([9]; Preemergence, 31 g ai/ha): 75
- Plant response rating (scale of 0 to 100), Ryegrass, Italian ([9]; Preemergence, 62 g ai/ha): 80
- Plant response rating, Ryegrass, Italian [9, 18]: 90
- Plant response rating, Ryegrass, Italian [9, 19]: 95
- Plant response rating, Ryegrass, Italian [9, 20]: 85
- Radish, Wild plant response rating [10, 14]: 25
- Plant response rating, Radish, Wild [10, 15]: 50
- Plant response rating, Radish, Wild [10, 16]: 60
- Plant response rating (scale of 0 to 100), Radish, Wild ([10]; Preemergence, 31 g ai/ha): 65
- Plant response rating (scale of 0 to 100), Radish, Wild ([10]; Preemergence, 62 g ai/ha): 60
- Plant response rating, Radish, Wild [10, 18]: 60
- Plant response rating, Radish, Wild [10, 19]: 100
- Plant response rating, Radish, Wild [10, 20]: 20
- Canarygrass plant response rating [11, 14]: 50
- Plant response rating, Canarygrass [11, 15]: 75
- Plant response rating, Canarygrass [11, 16]: 85
- Plant response rating (scale of 0 to 100), Canarygrass ([11]; Preemergence, 31 g ai/ha): 75
- Plant response rating (scale of 0 to 100), Canarygrass ([11]; Preemergence, 62 g ai/ha): 85
- Plant response rating, Canarygrass [11, 18]: 90
- Plant response rating, Canarygrass [11, 19]: 95
- Plant response rating, Canarygrass [11, 20]: 55
- Deadnettle plant response rating [12, 14]: 10
- Plant response rating, Deadnettle [12, 15]: 25
- Plant response rating, Deadnettle [12, 16]: 35
- Plant response rating (scale of 0 to 100), Deadnettle ([12]; Preemergence, 31 g ai/ha): 10
- Plant response rating (scale of 0 to 100), Deadnettle ([12]; Preemergence, 62 g ai/ha): 25
- Plant response rating, Deadnettle [12, 18]: 25
- Plant response rating, Deadnettle [12, 19]: 70
- Plant response rating, Deadnettle [12, 20]: 10
- Windgrass plant response rating [13, 14]: 70
- Plant response rating, Windgrass [13, 15]: 80
- Plant response rating, Windgrass [13, 16]: 85
- Plant response rating (scale of 0 to 100), Windgrass ([13]; Preemergence, 31 g ai/ha): 75
- Plant response rating (scale of 0 to 100), Windgrass ([13]; Preemergence, 62 g ai/ha): 80
- Plant response rating, Windgrass [13, 18]: 100
- Plant response rating, Windgrass [13, 19]: 100
- Plant response rating, Windgrass [13, 20]: 75

Source: US10597388B2, “Pyridazinone herbicides” (FMC CORPORATION, priority 2014, dated 2020)
